In PMC7915026, “Sulfaguanidine Hybrid with Some New Pyridine-2-One Derivatives: Design, Synthesis, and Antimicrobial Activity against Multidrug-Resistant Bacteria as Dual DNA Gyrase and DHFR Inhibitors” (Antibiotics, 2021):
In brackets after ≈: the same amount, converted by molar mass. Read-outs that look alike come from different tables or passages of the source.

Tests used:
[1] = system: CD4+ and CD8+ T lymphocytes; assay: In vivo T lymphocyte subsets from peripheral blood, flow cytometry; conditions: mice
E. coli ATCC 25922 = assay: MIC and MBC determination; type: cell-based; conditions: E. coli
C. albicans (ATCC 10231) = assay: MIC and MFC determination; type: cell-based

COc1ccc(/C=C(\C#N)C(=O)Nc2ccc(S(=O)(=O)NC(=N)N)cc2)cc1O [Compound 2d, N-(4-(N-Carbamimidoylsulfamoyl)phenyl)-2-cyano-3-(3-hydroxy-4-methoxyphenyl) acryl-amide]
T cells CD4+ [1]: 79.61 ± 0.3%
T cells CD8+ [1]: 27.05 ± 0.5%
MBC (E. coli ATCC 25922): 4.66 ± 0.21 µM (≈ 1.94 µg/mL)
MIC (E. coli ATCC 25922): 2.33 ± 0.32 µM (≈ 0.968 µg/mL)
MBC (E. coli ATCC 25922; Escherichia coli, ATCC25922, read-out: MBC): 4.66 µM (≈ 1.94 µg/mL)
MIC (E. coli ATCC 25922; Escherichia coli, ATCC25922, read-out: MIC): 2.33 µM (≈ 0.968 µg/mL)
MFC (C. albicans (ATCC 10231)): 37.60 ± 0.38 µM (≈ 15.6 µg/mL)
MFC/MIC (C. albicans (ATCC 10231)): <2
MIC (C. albicans (ATCC 10231)): 18.80 ± 0.65 µM (≈ 7.81 µg/mL)
MFC (C. albicans (ATCC 10231); Candida albicans, ATCC10231, read-out: MFC): 37.6 µM (≈ 15.6 µg/mL)
MIC (C. albicans (ATCC 10231); Candida albicans, ATCC10231, read-out: MIC): 18.8 µM (≈ 7.81 µg/mL)
